In PubChem BioAssay (NCI):
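Five compound concentrations were applied to cells in 96-well plates for 48 hours; endpoints were derived by simple linear interpolation of the resulting dose-response curve. Here, GI50 denotes the concentration required for 50% inhibition of growth. TGI: concentration producing complete growth inhibition.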

Experiments:
Assay in all cases: NCI anticancer screen, dose series, 48 h
786-0 renal = tested on: 786-0 renal
A498 renal = tested on: A498 renal
A549 NSCLC = tested on: A549 NSCLC
ACHN renal = tested on: ACHN renal
BT-549 breast = tested on: BT-549 breast
CAKI-1 renal = tested on: CAKI-1 renal
CCRF-CEM leukemia = tested on: CCRF-CEM leukemia
COLO 205 colon = tested on: COLO 205 colon
DU-145 prostate = tested on: DU-145 prostate
EKVX NSCLC = tested on: EKVX NSCLC
HCC-2998 colon = tested on: HCC-2998 colon
HCT-116 colon = tested on: HCT-116 colon
HCT-15 colon = tested on: HCT-15 colon
HL-60(TB) leukemia = tested on: HL-60(TB) leukemia
HOP-62 NSCLC = tested on: HOP-62 NSCLC
HOP-92 NSCLC = tested on: HOP-92 NSCLC
HS 578T breast = tested on: HS 578T breast
HT29 colon = tested on: HT29 colon
IGROV1 ovarian = tested on: IGROV1 ovarian
K-562 leukemia = tested on: K-562 leukemia
KM12 colon = tested on: KM12 colon
LOX IMVI melanoma = tested on: LOX IMVI melanoma
M14 melanoma = tested on: M14 melanoma
MALME-3M melanoma = tested on: MALME-3M melanoma
MCF7 breast = tested on: MCF7 breast
MDA-MB-231 breast = tested on: MDA-MB-231 breast
MDA-MB-435 = tested on: MDA-MB-435
MOLT-4 leukemia = tested on: MOLT-4 leukemia
NCI-H226 lung = tested on: NCI-H226 lung
NCI-H23 lung = tested on: NCI-H23 lung
NCI-H460 lung = tested on: NCI-H460 lung
NCI-H522 lung = tested on: NCI-H522 lung
NCI/ADR-RES ovarian = tested on: NCI/ADR-RES ovarian
OVCAR-3 ovarian = tested on: OVCAR-3 ovarian
OVCAR-4 ovarian = tested on: OVCAR-4 ovarian
OVCAR-5 ovarian = tested on: OVCAR-5 ovarian
OVCAR-8 ovarian = tested on: OVCAR-8 ovarian
PC-3 prostate = tested on: PC-3 prostate
RPMI-8226 leukemia = tested on: RPMI-8226 leukemia
RXF 393 renal = tested on: RXF 393 renal
SF-268 CNS = tested on: SF-268 CNS
SF-295 CNS = tested on: SF-295 CNS
SK-MEL-2 melanoma = tested on: SK-MEL-2 melanoma
SK-MEL-28 melanoma = tested on: SK-MEL-28 melanoma
SK-OV-3 ovarian = tested on: SK-OV-3 ovarian
SN12C renal = tested on: SN12C renal
SNB-19 CNS = tested on: SNB-19 CNS
SNB-75 CNS = tested on: SNB-75 CNS
SR leukemia = tested on: SR leukemia
SW-620 colon = tested on: SW-620 colon
T-47D breast = tested on: T-47D breast
TK-10 renal = tested on: TK-10 renal
U251 CNS = tested on: U251 CNS
UACC-257 melanoma = tested on: UACC-257 melanoma
UACC-62 melanoma = tested on: UACC-62 melanoma
UO-31 renal = tested on: UO-31 renal

Question: What does the source list for `COc1ccc(CNS(=O)(=O)/N=C2\NC(=O)NC2=C(Cl)Cl)cc1`?
Answer: GI50 (786-0 renal): 1.88 µM; TGI (786-0 renal): > 100 µM; GI50 (A498 renal): 1.22 µM; TGI (A498 renal): 5.39 µM; GI50 (A549 NSCLC): 3.48 µM; TGI (A549 NSCLC): > 100 µM; GI50 (ACHN renal): 3.59 µM; TGI (ACHN renal): > 100 µM; GI50 (BT-549 breast): 0.981 µM; TGI (BT-549 breast): 12.2 µM; GI50 (CAKI-1 renal): 3.05 µM; TGI (CAKI-1 renal): 73.3 µM; GI50 (CCRF-CEM leukemia): 0.364 µM; TGI (CCRF-CEM leukemia): 16.2 µM; GI50 (COLO 205 colon): 2.21 µM; TGI (COLO 205 colon): 5.1 µM; GI50 (DU-145 prostate): 3.22 µM; TGI (DU-145 prostate): > 100 µM; GI50 (EKVX NSCLC): 4.39 µM; TGI (EKVX NSCLC): > 100 µM; GI50 (HCC-2998 colon): 3.2 µM; TGI (HCC-2998 colon): 10.4 µM; GI50 (HCT-116 colon): 0.531 µM; TGI (HCT-116 colon): > 100 µM; GI50 (HCT-15 colon): 3.19 µM; TGI (HCT-15 colon): 11.6 µM; GI50 (HL-60(TB) leukemia): 0.756 µM; TGI (HL-60(TB) leukemia): 5.64 µM; GI50 (HOP-62 NSCLC): 0.621 µM; TGI (HOP-62 NSCLC): > 100 µM; GI50 (HOP-92 NSCLC): 0.48 µM; TGI (HOP-92 NSCLC): 10.4 µM; GI50 (HS 578T breast): 2.09 µM; TGI (HS 578T breast): > 100 µM; GI50 (HT29 colon): 1.67 µM; TGI (HT29 colon): > 100 µM; GI50 (IGROV1 ovarian): 3.3 µM; TGI (IGROV1 ovarian): 22 µM; GI50 (K-562 leukemia): 1.64 µM; TGI (K-562 leukemia): > 100 µM; GI50 (KM12 colon): 0.327 µM; TGI (KM12 colon): > 100 µM; GI50 (LOX IMVI melanoma): 0.386 µM; TGI (LOX IMVI melanoma): 10.8 µM; GI50 (M14 melanoma): 3.02 µM; TGI (M14 melanoma): > 100 µM; GI50 (MALME-3M melanoma): 5.62 µM; TGI (MALME-3M melanoma): 22.7 µM; GI50 (MCF7 breast): 0.348 µM; TGI (MCF7 breast): > 100 µM; GI50 (MDA-MB-231 breast): 1.92 µM; TGI (MDA-MB-231 breast): 8.31 µM; GI50 (MDA-MB-435): 1.36 µM; TGI (MDA-MB-435): 4.33 µM; GI50 (MOLT-4 leukemia): 0.435 µM; TGI (MOLT-4 leukemia): 59.2 µM; GI50 (NCI-H226 lung): 2.03 µM; TGI (NCI-H226 lung): 5.51 µM; GI50 (NCI-H23 lung): 3.8 µM; TGI (NCI-H23 lung): 17.7 µM; GI50 (NCI-H460 lung): 2.82 µM; TGI (NCI-H460 lung): > 100 µM; GI50 (NCI-H522 lung): 2.07 µM; TGI (NCI-H522 lung): 14.2 µM; GI50 (NCI/ADR-RES ovarian): 2.93 µM; TGI (NCI/ADR-RES ovarian): > 100 µM; GI50 (OVCAR-3 ovarian): 1.59 µM; TGI (OVCAR-3 ovarian): 17.5 µM; GI50 (OVCAR-4 ovarian): 4.47 µM; TGI (OVCAR-4 ovarian): > 100 µM; GI50 (OVCAR-5 ovarian): 3.23 µM; TGI (OVCAR-5 ovarian): > 100 µM; GI50 (OVCAR-8 ovarian): 3.38 µM; TGI (OVCAR-8 ovarian): > 100 µM; GI50 (PC-3 prostate): 2.61 µM; TGI (PC-3 prostate): > 100 µM; GI50 (RPMI-8226 leukemia): 0.352 µM; TGI (RPMI-8226 leukemia): 5.21 µM; GI50 (RXF 393 renal): 1.71 µM; TGI (RXF 393 renal): 6.79 µM; GI50 (SF-268 CNS): 0.541 µM; TGI (SF-268 CNS): > 100 µM; GI50 (SF-295 CNS): 2.85 µM; TGI (SF-295 CNS): > 100 µM; GI50 (SK-MEL-2 melanoma): 6.27 µM; TGI (SK-MEL-2 melanoma): 42.8 µM; GI50 (SK-MEL-28 melanoma): 8.08 µM; TGI (SK-MEL-28 melanoma): 22 µM; GI50 (SK-OV-3 ovarian): 8.22 µM; TGI (SK-OV-3 ovarian): > 100 µM; GI50 (SN12C renal): 0.811 µM; TGI (SN12C renal): > 100 µM; GI50 (SNB-19 CNS): 1.14 µM; TGI (SNB-19 CNS): > 100 µM; GI50 (SNB-75 CNS): 1.34 µM; TGI (SNB-75 CNS): > 100 µM; GI50 (SR leukemia): 2.86 µM; TGI (SR leukemia): 22.8 µM; GI50 (SW-620 colon): 2.45 µM; TGI (SW-620 colon): 16.6 µM; GI50 (T-47D breast): 2.4 µM; TGI (T-47D breast): > 100 µM; GI50 (TK-10 renal): 6.55 µM; TGI (TK-10 renal): > 100 µM; GI50 (U251 CNS): 1.7 µM; TGI (U251 CNS): 14.6 µM; GI50 (UACC-257 melanoma): 10.7 µM; TGI (UACC-257 melanoma): 68.6 µM; GI50 (UACC-62 melanoma): 2.89 µM; TGI (UACC-62 melanoma): 18.2 µM; GI50 (UO-31 renal): 5.13 µM; TGI (UO-31 renal): > 100 µM
